“Also recorded” adds a separate entry of the source.
Key:
[1] = tested on: rabbit model of acute pulmonary hypertension; conditions: cited from earlier work; for effect on pulmonary hypertension / pulmonary and systemic vasodilatation: systemic (intravenous) administration, in the combination a dose of dipyridamole with no activity per se
[2] = tested on: patients with bronchial asthma; conditions: intravenous administration; cited from earlier work
[3] = tested on: patients with post-traumatic pulmonary dysfunction; conditions: infusion; 11 patients; cited from earlier work
[4] = tested on: anaesthetized and ventilated rabbit with oleic acid-induced lung damage; assay: Whole animal model of acute pulmonary hypertension with severe gas exchange impairment through oleic acid (MIGET, haemodynamics); type: in vivo; conditions: for effect on pulmonary arterial pressure (FIG. 2) / effect on systemic arterial pressure (FIG. 3): NO 10, 34, 70, 120, 200 ppm by inhalation, YC-1 5 mg infusion over 10 min; for effect on pulmonary arterial pressure (FIG. 2) / effect on systemic arterial pressure (FIG. 3) / effect on arterial oxygenation / oxygenation index (FIG. 6) / effect on intrapulmonary shunting (MIGET, FIG. 5) / effect on perfusion of normally ventilated areas of the lung (normal V/Q, MIGET, FIG. 7) / effect on pulmonary arterial pressure (FIG. 4): n=6; for effect on arterial oxygenation / oxygenation index (FIG. 6): 150 min after oleic acid injection; for intrapulmonary shunting (MIGET): oleic acid (OA) group 33±2 %; for arterial oxygenation: oleic acid (OA) group 123±13 mmHg; for effect on intrapulmonary shunting (MIGET, FIG. 5) / effect on perfusion of normally ventilated areas of the lung (normal V/Q, MIGET, FIG. 7) / effect on pulmonary arterial pressure (FIG. 4): YC-1 5 mg infusion 30-40 min after oleic acid
Procedure: Whole Animal Model of Acute Pulmonary Hypertension with Severe Gas Exchange Impairment Through Infusion of Oleic Acid
The test animals In the rabbit model were anaesthetized by injection of about 700 μl of a mixture of Ketanest and Rompun in the ratio 3:2. The spontaneous breathing of the animal was maintained with this initial anaesthesia. 1 000 I.U. of heparin per kg of bodyweight were injected for anticoagulation. For the intubation, 7 ml of Xylocaine were injected into the subcutaneous tissue of the animal's neck. A tube was introduced into the trachea underneath the larynx and was used from this instant onwards for ventilation of the animal through the ventilation pump (breathing rate: […], tidal volume 35 ml). The animal underwent standard ventilation with a 50% N2 and a 50% O2 gas mixture. 7 ml/h of the anaesthetic mixture were administered through a Perfusor, which led to a deep analgesia and relaxation of the animal. The left common carotid artery was ligated and punctured for measurement of the arterial pressure. […] Through this port, a 4F balloon catheter was placed in the right ventricle and the right ventricular pressure was recorded. The gas exchange was analysed by the multiple inert gas elimination technique (MIGET). The MIGET is based on elimination and retention of a plurality of inert gases. Central venous infusion thereof in dissolved form into the animal via the ear margin vein was therefore necessary. This infusion solution was prepared by introducing 250 ml of the perfusate without air bubbles into a gas-tight bag. 0.5 ml of liquid halothane was put into this bag through an injection plug. The bag was then filled with a test gas mixture (10% SF6 3.0, 20% cyclopropane 2.0 and 70% ethane 2.5) and the gases were dissolved in the perfusate. 0.15 ml of diethyl ether was injected, followed by 0.7 ml of acetone. This solution was infused continuously at 30 ml/h into the animal during the equilibration period after change of the perfusate. An equilibrium between retention and elimination of the gases was set up within a period of 30-40 min. After this time, 2.5 ml samples were taken simultaneously from the arterial and venous blood by gas-tight 50 ml glass syringes (B-D Yale, Becton, Dickinson & Co, USA). The arterial and the venous sample was then weighed, blanketed with 15 ml of nitrogen gas (ECD grade) and incubated at 38° C. in a shaking water bath (135 min^−1). During this time, an equilibrium, depending on the solubility of the gas, was set up between the gaseous and liquid phase. After the equilibration time had elapsed, the total volume of the syringe was determined and the supernatant gas was transferred into an air-tight 30 ml glass syringe (B-D Yale, Becton, Dickinson & Co, USA) preheated to 38° C. The latter was stored at 38° C. and used for gas chromatographic analysis. Immediately after removal of the arterial and venous perfusate, a sample of the expired air from the isolated lung was taken by a preheated 30 ml glass syringe on an expiratory gas mixing box. This gaseous sample was analysed immediately in a gas chromatograph. The gases were analysed by a computer-assisted calculation through which essentially the following parameters were calculated: shunting (perfusion, unventilated regions of the lung), normal V/Q (perfusion in normally ventilated regions of the lung).
Besides the MIGET data, the following haemodynamic parameters were determined: • pulmonary arterial pressure • systemic arterial pressure • arterial oxygen partial pressure (pO2)
Catheterization of the animal was followed by injection of 50 μg of oleic acid (OA) into the pulmonary artery. The pulmonary arterial pressure rose after this injection from 11-13 mmHg to a stable plateau of 17-18 mmHg. This rise in the pulmonary arterial pressure was accompanied by severe gas exchange impairment essentially characterized by a fall in the arterial oxygenation and a rise in the shunt perfusion (measured by the MIGET). […]

[5] = tested on: isolated rabbit lung; assay: Isolated, bloodlessly perfused and ventilated rabbit lung with U46619-induced acute pulmonary hypertension; conditions: for effect on pulmonary arterial pressure (FIG. 1): U46619-induced pulmonary hypertension, NO 10, 50, 100, 200 ppm cumulatively by inhalation, YC-1 0.1 μM, enhancement at 50, 100, 200 ppm NO, n=6
Procedure: Model of the Isolated, Bloodlessly Perfused and Ventilated Rabbit Lung
The test animal was anaesthetized by injection of about 700 μl of a mixture of Ketanest and Rompun in the ratio 3:2. The spontaneous breathing of the animal was maintained with this initial anaesthesia. 1 000 I.U. of heparin per kg of bodyweight were injected through the venous access for anticoagulation. For the intubation, 7 ml of Xylocaine were injected into the subcutaneous tissue of the animal's neck. A tube was introduced into the trachea underneath the larynx and was used from this instant onwards to ventilate the animal with ambient air through the ventilating pump (breathing rate: […], tidal volume 30 ml). About 3 ml of the anaesthetic mixture were administered over a period of 15 min. The lungs were then removed by a standard technique; likewise dissection of the pulmonary artery and the ascending aorta.
To make it possible to remove the lung from the body's own perfusion without interruption, the pulmonary artery catheter of the perfusion system was, after incision of the right ventricle, advanced into the pulmonary artery and fixed there by means of the open ligature. After cutting off the apex of the heart and closing the ascending aorta, the lung was artificially perfused with Krebs-Henseleit buffer cooled to 4° C. (the cooling served to reduce metabolism) at 20 ml/min. The ambient air was replaced by a 5% CO2, 15% O2 and 80% N2 gas mixture.
The lung was dissected out of the thorax, and a connector was sutured into the left heart to allow the perfusion circulation to be completed. The lung was suspended on a weighing cell and the perfusion circulation was completed through the connector. The lung perfusate then flowed out through a pressure cascade. The temperature of the complete system was raised to 38° C. and the pressure recording started. In the system, the pulmonary artery pressure, the left ventricular pressure, the ventilation pressure and the weight were recorded continuously. […]

[6] = tested on: ventilated patients suffering from acute adult respiratory distress syndrome (ARDS); conditions: inhaled; cited from earlier work
[7] = NO 100 ppm inhaled 30-150 min, YC-1 5 mg infusion 30-40 min

Compound: urodilatin
- effect on pressure in the systemic circulation ([1]; intravenous administration): reduces the pressure in the systemic circulation to the same extent
- effect on pulmonary hypertension / pulmonary and systemic vasodilatation [1]: dose-dependent reduction in the pulmonary and systemic vasodilatation; also recorded: marked reduction in pulmonary hypertension
- effect on ventilatory parameters [2]: improvement in the ventilatory parameters

Compound: OCCN(CCO)c1nc(N2CCCCC2)c2nc(N(CCO)CCO)nc(N3CCCCC3)c2n1 [dipyridamole]
- effect on pulmonary hypertension / pulmonary and systemic vasodilatation [1]: dose-dependent reduction in the pulmonary and systemic vasodilatation

Compound: O=[N+]([O-])OCC(CO[N+](=O)[O-])O[N+](=O)[O-] [Ng, 1,2,3-propanetriyl trinitrate]
- effect on acute pulmonary hypertension [3]: reduction in the acute pulmonary hypertension
- effect on arterial oxygen content [3]: deterioration in the arterial oxygen content

Compound: [N]=O [NO, nitric oxide]
- effect on pulmonary arterial pressure (FIG. 2) ([4]; 50 μg oleic acid): dose-dependent reduction in the pulmonary arterial pressure
- effect on systemic arterial pressure (FIG. 3) ([4]; 50 μg oleic acid): remained unchanged; also recorded: did not lead to a dose-dependent reduction in the systemic arterial pressure
- effect on arterial oxygenation / oxygenation index (FIG. 6) [4, 7]: significant increase in the arterial oxygenation
- pulmonary arterial pressure ([4]; NO 100 ppm inhaled 30-150 min, YC-1 5 mg infusion 30-40 min, oleic acid (OA) group 17.8±1.6 mmHg): 14.5±1.8 mmHg
- intrapulmonary shunting (MIGET) [4, 7]: 23±3%
- arterial oxygenation [4, 7]: 234±21 mmHg
- effect on intrapulmonary shunting (MIGET, FIG. 5) ([4]; NO 100 ppm inhaled 30-150 min): reduction in the intrapulmonary shunting
- effect on perfusion of normally ventilated areas of the lung (normal V/Q, MIGET, FIG. 7) ([4]; NO 100 ppm inhaled 30-150 min): significant increase in the perfusion of normally ventilated areas of the lung
- effect on pulmonary arterial pressure (FIG. 4) ([4]; NO 100 ppm inhaled 30-150 min): reduction in the pulmonary arterial pressure
- effect on pulmonary arterial pressure (FIG. 1) [5]: dose-dependent reduction in the pulmonary arterial pressure
- effect on gas exchange [6]: improvement in gas exchange

Compound: CCCCC[C@H](O)/C=C/[C@@H]1[C@@H](C/C=C\CCCC(=O)O)[C@H]2CO[C@@H]1C2 [U46619]
- pulmonary arterial pressure raised by U46619 ([5]; continuous intravascular 70 to 160 pmol/kg min U46619, raised from 6-8 mmHg): 33-35 mmHg

Compound: OCc1ccc(-c2nn(Cc3ccccc3)c3ccccc23)o1 [YC-1, 3-(5′-Hydroxymethyl-2′-furyl)-1-benzyl indazole]
- effect on pulmonary arterial pressure (FIG. 2) ([4]; 50 μg oleic acid): no effect on the measured parameters
- effect on systemic arterial pressure (FIG. 3) ([4]; 50 μg oleic acid): no effect on the measured parameters
- effect on arterial oxygenation / oxygenation index (FIG. 6) [4, 7]: significant effect on the oxygenation index
- intrapulmonary shunting (MIGET) [4, 7]: 21±4%
- arterial oxygenation [4, 7]: 215±8 mmHg
- effect on intrapulmonary shunting (MIGET, FIG. 5) ([4]; NO 100 ppm inhaled 30-150 min): no significant effect on intrapulmonary shunting
- effect on perfusion of normally ventilated areas of the lung (normal V/Q, MIGET, FIG. 7) ([4]; NO 100 ppm inhaled 30-150 min): no significant effect on the perfusion of normally ventilated areas of the lung
- effect on pulmonary arterial pressure (FIG. 4) ([4]; NO 100 ppm inhaled 30-150 min): no effect on the pulmonary arterial pressure
- effect on pulmonary arterial pressure (FIG. 1) [5]: no intrinsic effect on the pulmonary arterial pressure

Compound: CCCCCCCC/C=C\CCCCCCCC(=O)O [oleic acid]
- intrapulmonary shunting after oleic acid injection ([4]; 50 μg oleic acid): 30-35%
- pulmonary arterial pressure plateau after oleic acid injection ([4]; 50 μg oleic acid into the pulmonary artery, rise from 11-13 mmHg): 17-18 mmHg
